The subject of series [1] is HuH-7 cells. Briefly: MTT assay, HuH-7 cell viability. It counts as cell-based, human. To be noted: HuH-7, 10-200 µM, 24, 48, 72 hr. On the procedure: Huh-7 cells were seeded in 96-well plates at a density of 5 × 10^3 cells/ well. The cells were allowed to adhere by incubating at 37 °C with 5% CO2 for 12 hr. 100 μL of Cultured medium containing 10% FBS and the desired concentration of peptide replaced to each well and the cells were then incubated with the peptide solution for another 24, 48, or 72 hr. After the desired time of incubation, 10 μL of MTT (12 mM, Invitrogen) solution at a concentration of 5 mg/mL was added to each well and incubated at 37 °C for another 4 hr. The reduction reaction was terminated by adding 100 μL of 10% of SDS solution (in Milli-Q) and incubated for 12 hr to dissolve the formazan crystals formed in the cells. A Nivo multimode plate reader (PerkinElmer) was used to measure the optical density at the 570 nm wavelength of each well. All experiments were conducted in triplicate, and the results were calculated as mean ± standard deviation and presented as cell viability.

A short description of series [2]: TEM imaging / preparation of peptide assemblies (nanofilament size and stability). Format: physicochemical. To be noted: in water. On the procedure:
To prepare the stocks of peptide assembled nanofilaments, the required amount of peptide was dissolved in Milli-Q water at 100 mM (for FFF) or 10 mM (for the other peptides, and peptides mixture) and adjust the solution to reach a final pH of 7.0 using 1 N NaOH solution. To stabilize the peptide assemblies, the stock solutions were stored at room temperature for at least 24 h before application. The obtained nanofilaments were very stable and were not affected by simple dilution at neutral pH. Therefore, to prepare the working solution, the desired amount of stock solution was diluted using Milli-Q water or the culture medium. Stand the working solutions for 30 min to evenly distribute nanofilaments in the working solution before applying them to the experiments.
To prepare TEM samples, 5 μL peptide solution was dropped on a glow-charged copper grid (400 mesh) coated with carbon film. After removing excess solution, the grid was gently washed three times to remove excess nanofilaments. Then the sample grid was negatively stained using 1.0% (w/v) uranyl acetate and air-dried. TEM images were captured at a high vacuum using a transmission electron microscope (JEM-1230R, JEOL, Japan).

Series [3] can be described thus: FTIR microscopy of peptide assemblies. It counts as physicochemical. To be noted: freeze-dried on CaF2, aqueous assembly. From the text:
To prepare FTIR samples, an aliquot of the peptide solution was dropped on a TS CaF2 window (5 mm diameter) (Edmund Optics, Japan) and freeze-dried using a lyophilizer (Freeze Dryer, Labconco). The CaF2 Window with assembled nanofilaments was mounted for FTIR microscopic analysis. FTIR microscopic analysis of a plain CaF2 Window served as the reference. An FTIR microscope (Nicolet iN10, Thermo Fisher Scientific) equipped with an MCT detector was used for collecting IR spectra. Spectra ranging from 4000 to 650 cm^−1 were obtained in transmission mode, aperture of 50 μm, with the resolution of 2 cm^−1. Each spectrum was derived from an average of 128 scans for each sample.

Series [4] deals with Phospho-Myosin Light Chain 2 (Thr18/Ser19) (pMLC) in HuH-7 cells. Description: Western blotting pMLC. Format: cell-based, human. To be noted: relative to Ctrl = 1, 12 hr, representative blot. On the procedure:
Protein lysates were prepared in ice-cold RIPA lysis, and extraction buffer (Thermo Scientific) supplemented with 1% Halt Protease Inhibitor (Thermo Scientific) and 1% Halt Phosphatase inhibitor (Thermo Scientific). Cells were scraped off from the culture surface using a cold plastic cell scraper, and the cell suspension was then gently transferred into a pre-cooled microcentrifuge tube and maintained on ice for 30 min with constant agitation before centrifuged at 21000 × g for 20 min. The supernatant was then transferred to a new tube, and the protein concentration of the supernatant was quantified according to the Pierce™ BCA Protein Assay Kit (Thermo Scientific). The rest of the supernatant was mixed with 4x laemmli sample buffer (Bio-Rad) in a 1:3 ratio and boiled at 100 °C for 10 min. Lysates can be aliquoted and stored at −80 °C freezer. When running the gel, 30 μg of protein was loaded into each well of the SDS-PAGE gels, along with a molecular weight marker (Bio-Rad). The gel was run for 2 hr at constantly 100 V to separate the proteins based on the molecular weight. The proteins were then transferred from the SDS-gel to a PVDF membrane (Bio-Rad) using a Transfer-blot turbo system (Bio-Rad). […] Protein bands were quantified by measuring peak areas using ImageJ. […]
(In general: In western blotting, separated proteins are transferred to a membrane and probed.)

In series [5] the test system is HuH-7 cells. Description: Morphodynamics analysis (edge velocity). Format: cell-based, human. To be noted: for Retraction velocity / Protrusion velocity: median. On the procedure: The whole-cell morphodynamics maps were generated using the open-source ImageJ plugin “ADAPT”[46]. The analyses were done on the maximum intensity projection of 5.5-µm stack images of mRuby-Lifeact-7 transfected HuH-7 cells pretreated with peptides for 12 hr. A spinning-disk confocal (Olympus SD-OSR) equipped with the camera Prime BSI sCMOS camera and a 100×/1.35 Silicon UPlanSApo objective was used to obtain the images every 2 min. All velocity values are directly measured using the plugin and plotted using GraphPad Prism. Briefly, the fluorescent images were Gaussian filtered to suppress noise and then a gray-level threshold was applied to create a binary image. The cell boundary was taken as pixels bordering segmented regions and the resulting segmentation is used as the seed for the region-growing algorithm in the next frame. […] The change in gray level was used to calculate the membrane velocity at each point and for a better visual representation, the resulting velocity map images (around 10000 × 100 pixels) were stretched to optimize visualization. […]

Setting [6] is: entire periphery, HuH-7, pretreated 12 hr, violin plot.
[7] abbreviates: vin258-transfected HuH-7, 12 hr, n = 10 cells.

Regarding “FFFIKLLI [assembling ligand: FFF coupled to the N-terminus of IKLLI; self-assembles into nanofilaments]”, in the series on HuH-7 cells [1], the cytotoxicity entry is on record as “without inducing cytotoxicity”. In series [2] (TEM, FFFIKLLI 100 μM), the nanofilament width is on record as ~ 100 nm. The nanofilament stability result in series [2] (neutral pH, simple dilution) is on record as “stable”. Also, the “hydrogen bonding by FTIR” value in series [3] is recorded as “NH-N”. The sequence further came in with a pMLC band in series [4] of 0.17. Further, in the series with HuH-7 cells [5] (HuH-7, FFFIKLLI 100 μM, 12 h), the “trailing edge retraction and leading-edge protrusion” value was “restricted both trailing edge retraction and leading-edge protrusion”. The Retraction velocity with HuH-7 cells [5] (Tiam1/Rac1-activated HuH-7, 12 hr, n = 7, 8 cells) worked out at 0.035 µm/min; with HuH-7 cells [5] (setting [6]), 0.0076 µm/min; with HuH-7 cells [5] (setting [7]), 0.0080 µm/min. For the same sequence, the Protrusion velocity is on record as 0.0072 µm/min in the series with HuH-7 cells [5] (setting [6]) and 0.0086 µm/min with HuH-7 cells [5] (setting [7]).

The values are drawn from article PMC9411606, “Control cell migration by engineering integrin ligand assembly” (Nature Communications, 2022).
